Our source for the Vmax, Km and Drug uptake values is ChEMBL document CHEMBL4627413, “Targeted Delivery of Antisense Oligonucleotides Using Neurotensin Peptides” (J Med Chem, 2020).

As usually defined, the Km is the concentration of substrate that gives half-maximal velocity.

One data set concerns the target T1, Sortilin (Homo sapiens, UniProt Q99523).
T1 sequence (Q99523 whole entry): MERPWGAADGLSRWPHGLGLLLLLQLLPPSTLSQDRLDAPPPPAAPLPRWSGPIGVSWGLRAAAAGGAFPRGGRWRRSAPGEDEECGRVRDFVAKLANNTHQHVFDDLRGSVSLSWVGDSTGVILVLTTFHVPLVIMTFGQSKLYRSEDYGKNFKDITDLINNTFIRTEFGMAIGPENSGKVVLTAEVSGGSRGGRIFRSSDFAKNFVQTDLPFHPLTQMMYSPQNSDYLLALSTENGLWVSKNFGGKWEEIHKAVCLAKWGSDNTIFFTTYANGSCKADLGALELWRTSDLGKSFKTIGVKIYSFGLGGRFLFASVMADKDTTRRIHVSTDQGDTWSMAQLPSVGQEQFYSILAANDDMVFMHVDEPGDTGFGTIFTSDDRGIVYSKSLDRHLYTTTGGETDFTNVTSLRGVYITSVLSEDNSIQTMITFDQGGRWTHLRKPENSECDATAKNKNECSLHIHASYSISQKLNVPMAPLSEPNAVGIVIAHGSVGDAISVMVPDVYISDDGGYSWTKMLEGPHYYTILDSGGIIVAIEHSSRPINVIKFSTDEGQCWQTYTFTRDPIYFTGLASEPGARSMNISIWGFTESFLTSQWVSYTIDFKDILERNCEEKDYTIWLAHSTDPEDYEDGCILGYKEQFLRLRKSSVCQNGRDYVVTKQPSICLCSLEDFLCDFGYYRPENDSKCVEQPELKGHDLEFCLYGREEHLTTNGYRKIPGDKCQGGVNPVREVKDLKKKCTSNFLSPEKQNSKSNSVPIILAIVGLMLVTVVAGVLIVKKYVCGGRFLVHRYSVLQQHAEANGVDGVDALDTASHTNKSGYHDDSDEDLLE
Nature of the data set: Substrate activity at human SORT1 expressed in HEK293 cells assessed as compound uptake incubated for 2 hrs by flow cytometry. The class given is ADME, cell-based. Particulars: hek293, 2 h. (A flow cytometer gives signals particle by particle.)

Data set [1] in a line: Drug uptake in HEK293 cells incubated for 2 hrs by flow cytometry. Particulars: human, hek293, 2 h; call rule not given here. It is filed as ADME, cell-based.

In the case of `CC[C@H](C)[C@H](NC(=O)[C@H](Cc1ccc(O)cc1)NC(=O)[C@@H]1CCCN1C(=O)[C@H](CCCNC(=N)N)NC(=O)[C@H](CCCNC(=N)N)NC(=O)[C@@H]1CCCN1C(=O)[C@H](CCCCN)NC(=O)[C@H](CC(N)=O)NC(=O)[C@H](CCC(=O)O)NC(=O)[C@H](Cc1ccc(O)cc1)NC(=O)[C@H](CC(C)C)NC(=O)CNC(=O)[C@@H]1CCCN1C(=O)[C@H](CO)NC(=O)[C@H](CO)NC(=O)CNC(=O)[C@H](C)NC(=O)[C@@H]1CCCN1C(=O)[C@@H]1CCCN1C(=O)[C@@H]1CCCN1C(=O)[C@@H](N)CCCCNC(=O)Cn1nnc2c1CC[C@H]1[C@@H](CC2)[C@H]1COC(=O)NCCOCCOCCNC(=O)CCCCC[N+]1=C(/C=C/C=C2/N(C)c3ccccc3C2(C)C)C(C)(C)c2ccccc21)C(=O)N[C@@H](CC(C)C)C(=O)O.[Cl-]`, at Sortilin, the Vmax came out at 1367.

For `CC[C@H](C)[C@H](NC(=O)[C@H](Cc1ccc(O)cc1)NC(=O)[C@@H]1CCCN1C(=O)[C@H](CCCNC(=N)N)NC(=O)[C@H](CCCNC(=N)N)NC(=O)[C@@H]1CCCN1C(=O)[C@H](CCCCN)NC(=O)[C@H](CC(N)=O)NC(=O)[C@H](CCC(=O)O)NC(=O)[C@H](Cc1ccc(O)cc1)NC(=O)[C@H](CC(C)C)NC(=O)[C@@H](N)CCCCNC(=O)Cn1nnc2c1CC[C@H]1[C@@H](CC2)[C@H]1COC(=O)NCCOCCOCCNC(=O)CCCCC[N+]1=C(/C=C/C=C2/N(C)c3ccccc3C2(C)C)C(C)(C)c2ccccc21)C(=O)N[C@@H](CC(C)C)C(=O)O.[Cl-]`, on Sortilin, the Km came out at 0.08 µM and the Vmax amounted to 1397. Besides, in data set [1], the Drug uptake result is given as “Not Active”.
